Test results reported in patent US8367075B2, “Synergistic combination and method thereof” (Indian Institute of Science, priority 2010, dated 2013).
Entries after “also recorded” stand apart in the source; their conditions may differ. Like-named read-outs stand apart in the source and are kept apart here.

Tests used:
[1] = system: B-cell malignancies such as Multiple myeloma, Solitary plasmacytoma and Plasma cell leukemia; test: Mice with B-cell malignancies treated with MIP, Cyclophosphamide or both (Conclusion); format: in vivo; settings: MIP ~5×10^8 intradermal and/or Cyclophosphamide 15 mg/Kg i.p. next day; compared with initial tumor size
Description: The synergistic combination of Cyclophosphamide and Mycobacterium indicus pranii is administered to mice detected with B-cell malignancies such as Multiple myeloma, Solitary plasmacytoma and Plasma cell leukemia. The experiment is conducted mainly on mice which have been detected with said myelomas. The mice are initially examined and the tumor growth and size approximately determined. The mice are then divided into groups so that 5 mice form a group. One mice group is subjected to only Mycobacterium indicus pranii treatment and another group to only Cyclophosphamide treatment. The third group of mice is subjected to a treatment of Mycobacterium indicus pranii along with Cyclophosphamide. This third group of mice are initially intradermally injected with Mycobacterium indicus pranii at a concentration range of ˜5×10^8 cells. […] The mice are then re-examined and the tumor volume estimated on different days after Mycobacterium indicus pranii administration.

EL4 thymoma = EL4 thymoma subcutaneous tumor model in C57BL/6 mice (tumor volume); format: in vivo
Description: (§1) EL4 cells, a thymoma cell line, is grown in T75 flasks in RPMI complete medium supplemented with 10% fetal bovine serum, 2 mM L-glutamine, 100 U/ml penicillin, 100 μg/ml streptomycin, 10% nonessential amino acids, 10% HEPES, 10% sodium pyruvate, 50 μM 2-ME, 10 μg/ml gentamycin in a humidified atmosphere of 5% CO2 at 37° C.
C57BL/6 mice (5 per group) of 6 to 8 weeks of age are injected subcutaneously with EL4 […] cells (˜0.5×10^6 cells/mouse). Two groups of mice are intradermally injected with Mycobacterium indicus pranii (˜5×10^8) either 3 or 7 days post-inoculation of tumor cells. Two groups of mice one injected previously with MIP and another uninjected are intraperitoneally injected with 15 mg/Kg body weight of Cyclophosphamide on the next day. Tumor volume is estimated in the three groups of mice on the 11th, 14th and 17th day after tumor inoculation. This has been depicted in FIG. 13. Vehicle alone (0.1 ml of PBS) is used as control and intradermally injected 7 days after administration of cells.

Sp2/0 myeloma = system: Sp2/0 myeloma
Description: BALB/c male mice, aged 6-8 weeks and weighing ˜18-25 g, are procured from the Central Animal Facility, Indian Institute of Science, Bangalore. All mice received care according to institutional guidelines and are maintained under controlled conditions and fed with a standard diet.
as §1, with “Sp2/0” for “EL4”, “myeloma” for “thymoma”, “T175” for “T75”, “IMDM” for “RPMI”
An experimental syngeneic tumor model using the myeloma, Sp2/0 in BALB/c mice is studied. […] Different amounts of cells are washed and injected s.c. to establish the cell numbers that need to be injected to reproducibly display solid tumors within two weeks. Mice are sacrificed once the tumors reach a large size to avoid distress. Tumor volume is monitored on the mentioned days and calculated with the formula, V=a×b^2/2, where a is the longest and b is perpendicular to it, are measured on the surface of the tumor with vernier calipers.
BALB/c mice (5 per group) of 6 to 8 weeks of age are subcutaneously injected with Sp2/0 myeloma cells (˜10×10^6 cells/mouse). Thereafter, mice are intradermally injected with Mycobacterium indicus pranii (˜5×10^8) either 1 day prior to or 3 or 6 days post-inoculation of tumor cells. Tumor volume is estimated on 9th, 12th and 14th day of tumor inoculation. Vehicle alone (0.1 ml of PBS) is used as control and intradermally injected 3 days after administration of cells.
Next, the optimum dose of Mycobacterium indicus pranii required for reducing the tumor size and delaying the appearance of tumors is titrated. BALB/c mice (5 per group) of 6 to 8 weeks of age are subcutaneously injected with Sp2/0 Myeloma cells (˜10×10^6 cells/mouse). Mice are intradermally injected with different doses of Mycobacterium indicus pranii (5×10^3, 5×10^5, 5×10^7 and 5×10^8) 3 days post-inoculation of tumor cells. Tumor volume is estimated on the 9th, 12th and 14th day of tumor inoculation. Vehicle alone (0.1 ml of PBS) is used as control and intradermally injected 3 days after administration of cells.
BALB/c mice are intraperitoneally injected with three different doses of Cyclophosphamide, Indomethacin and RU486 four days after implantation of Sp2/0 cells. The doses of Cyclophosphamide, Indomethacin and RU486 are chosen based on that administered to mice and the standardization of the same in the Sp2/0 tumor model is depicted in FIG. 4. BALB/c mice (5 per group) of 6 to 8 weeks of age are subcutaneously injected with Sp2/0 myeloma cells (˜10×10^6 cells/mouse). The mice are then intraperitoneally injected with different doses of either Cyclophosphamide (5, 15 or 100 mg/Kg body weight/mouse) or Indomethacin (0.1, 1 or 10 mg/Kg body weight/mouse) or RU486 (0.1, 1 or 5 mg/Kg body weight/mouse), 4 days post-inoculation of tumor cells. Tumor volume is estimated on the 9th, 12th and 14th day after tumor inoculation. Vehicle alone (0.5 ml of PBS) is used as control and intradermally injected 4 days after administration of cells.
BALB/c mice (5 per group) of 6 to 8 weeks of age are subcutaneously injected with Sp2/0 myeloma cells (˜10×10^6 cells/mouse). Four groups of mice are intradermally injected with Mycobacterium indicus pranii (˜5×10^8) 3 days post-inoculation of tumor cells. Three groups of Mycobacterium indicus pranii injected mice are intraperitoneally injected with Cyclophosphamide (15 mg/Kg b. wt.), Indomethacin (1 mg/Kg b. wt.) and RU486 (1 mg/Kg b. wt.) on the next day.

SMILES | tumor size/volume [1] | tumor reduction (EL4 thymoma; 15 mg/Kg body weight i.p. day 4 or day 8, alone) | tumor size (EL4 thymoma; 15 mg/Kg body weight i.p. on day 8, alone, vs PBS) | tumor progression (Sp2/0 myeloma; 5 mg/Kg body weight i.p. day 4, alone) | tumor volume / tumor progression (Sp2/0 myeloma; 15 mg/Kg b. wt. i.p. day 4, alone) | tumor volume (Sp2/0 myeloma; 15 mg/Kg b. wt. i.p. day 8, alone) | toxicity to mice (Sp2/0 myeloma; 50 mg/Kg b. wt. i.p.) | tumor volume (Sp2/0 myeloma; 50 mg/Kg b. wt. i.p. day 4, alone) | tumor volume (Sp2/0 myeloma; 50 mg/kg i.p. day 8, alone) | effect on the mice (toxicity) (Sp2/0 myeloma; 100 mg/Kg body weight i.p. day 4) | tumor progression (Sp2/0 myeloma; 100 mg/Kg body weight i.p. day 4, alone) | tumor volume (Sp2/0 myeloma; 1, 5 and 15 mg/Kg b. wt. i.p. day 8, alone) | tumor volume (Sp2/0 myeloma; 1 and 5 mg/Kg b. wt. i.p. day 4, alone) | tumor volume (Sp2/0 myeloma; Cyclophosphamide alone on the same day as MIP (day 3), one day prior or one day after) | tumor volume (Sp2/0 myeloma; 0.1, 1 or 10 mg/Kg body weight i.p. day 4, alone, even at the highest dose) | tumor volume (Sp2/0 myeloma; MIP ~5×10^8 intradermal day 3 plus drug i.p. day 4 (Cyclophosphamide 15, Indomethacin 1 or RU486 1 mg/Kg b. wt.))
O=P1(N(CCCl)CCCl)NCCCO1 (stereo not shown) [Cyclophosphamide] | failed to elicit a similar tumor size reduction | unable to induce any effect on tumor reduction | greater than observed with PBS | not able to reduce tumor progression | not able to sufficiently prevent tumor progression; also recorded: showed some reduction in tumor volume | showed some reduction in tumor volume; also recorded: unable to induce any effect on tumor reduction | toxic to mice | effective | significant tumor reduction | reduced body weight and hair loss | able to prevent tumor progression to a considerable extent | did not significantly reduce tumor volume | unable to reduce tumor volume | had no effect on tumor volume | – | –
COc1ccc2c(c1)c(CC(=O)O)c(C)n2C(=O)c1ccc(Cl)cc1 [Indomethacin] | – | – | – | – | – | – | – | – | – | – | – | – | – | – | did not show any significant reduction in tumor volume | seemed to reverse the beneficial effects observed with Mycobacterium indicus pranii
